Where two headings read alike, the source gives them in different places.
Columns and labels:
OccJ WT [1] = target: T1, OccJ WT (Agrobacterium tumefaciens, UniProt P0A4F8); test: biochemical; format: binding
T1 construct: The mature PBP OccJ (256 aa without the signal peptide) expression plasmid was obtained by cloning the occJ gene lacking the first twenty residues; hexahistidine (C); made in house; host or cells: E. coli BL21
Method: (§1) Binding of ligands to OccJ, NocT, LAO and protein mutants was monitored by autofluorescence by exciting the protein at a wavelength of 295 nm and monitoring the quenching of fluorescence emission of tryptophans at 335 nm. All experiments were performed at 20 °C in 96 wells plates (1/2 Area Plate-96F, Perkin Elmer) using Tecan Infinite M1000 reader (Tecan), in 50 mM Tris-HCl pH 8.0, 150 mM NaCl buffer with a fixed amount of proteins (1 µM) and increasing concentrations of ligand. […] The data were analysed using Origin® 7 software and fitted to the equation f = ΔFluorescencemax * abs(x)/(K D + abs(x)).

OccJ WT [2] = target: T1, OccJ WT; test: OccJ WT ligand binding, isothermal titration microcalorimetry; settings: ITC, 20 °C
Method: (§2) Isothermal titration microcalorimetry experiments were performed with an ITC200 isothermal titration calorimeter from MicroCal (GE Healthcare). The experiments were carried out at 20 °C. Protein concentration in the microcalorimeter cell (0.2 mL) varied from 20 to 150 µM. Nineteen injections of 2 µL of ligand solution (amino acids, opines and octopine derivatives) at concentration ranging from 240 µM to 1.5 mM were performed at intervals of 180 s while stirring at 500 rpm. The experimental data were fitted to theoretical titration curves with software supplied by MicroCal (ORIGIN®). This software uses the relationship between the heat generated by each injection and ΔH (enthalpy change in kcal/mol), Ka (the association binding constant in M^−1), n (the number of binding sites), total protein concentration and free and total ligand concentrations.

OccJ S91G = target: T2, OccJ S91G (Agrobacterium tumefaciens, UniProt P0A4F8, S91G); test: OccJ S91G ligand binding, fluorescence titration; settings: intrinsic protein fluorescence titration; 20 °C; pH 8.0
T2 construct: The mature LAO expression plasmid, LAO-Q122A, OccJ-S91G and OccJ-N202D were chemically synthesized; pET-28a); host or cells: E. coli BL21
Method: as §1

OccJ N202D = target: T3, OccJ N202D (Agrobacterium tumefaciens, UniProt P0A4F8, N202D); format: binding; settings: ITC, 20 °C
T3 construct: The mature LAO expression plasmid, LAO-Q122A, OccJ-S91G and OccJ-N202D were chemically synthesized; pET-28a); host or cells: E. coli BL21
Method: as §2

LAO WT = target: T4, LAO WT (Salmonella typhimurium, UniProt P02911); test: biochemical; format: binding, Salmonella enterica
T4 construct: The mature LAO expression plasmid, LAO-Q122A, OccJ-S91G and OccJ-N202D were chemically synthesized; pET-28a); host or cells: E. coli BL21
Method: as §2

LAO Q122A = target: T5, LAO Q122A (Salmonella typhimurium, UniProt P02911, Q144A); test: LAO Q122A ligand binding, ITC; parameters: species or system Salmonella enterica
T5 construct: The mature LAO expression plasmid, LAO-Q122A, OccJ-S91G and OccJ-N202D were chemically synthesized; pET-28a); host or cells: E. coli BL21
Method: as §2

NocT WT [3] = target: T6, NocT WT (Agrobacterium fabrum, UniProt P35120); settings: F/ITC; amino acids; ref [6]; cited from earlier work
T6 construct: Cloning of mature OccJ, NocT-G97S, OccJ-S91G, OccJ-N202D, LAO and LAO-Q122A; made in house

LAO = target: LAO; parameters: method as in PMID 1400387; settings: ref [20]; cited from earlier work
NocT WT [4] = target: T6, NocT WT; format: binding, Agrobacterium tumefaciens; settings: fluorescence titration; 20 °C; pH 8.0; octopine family members and analogues; read-out: Kd (F)
Method: as §1

NocT WT [5] = target: T6, NocT WT; format: binding, Agrobacterium tumefaciens; settings: ITC, 20 °C
Method: as §2

[6] = intrinsic protein fluorescence titration, 20 °C, 50 mM Tris-HCl pH 8.0, 150 mM NaCl, 1 µM protein
[7] = intrinsic protein fluorescence titration, 20 °C, 50 mM Tris-HCl pH 8.0, 150 mM NaCl, 1 µM protein, read-out: K D (F)

T5 sequence (P02911 23-260 Q144A): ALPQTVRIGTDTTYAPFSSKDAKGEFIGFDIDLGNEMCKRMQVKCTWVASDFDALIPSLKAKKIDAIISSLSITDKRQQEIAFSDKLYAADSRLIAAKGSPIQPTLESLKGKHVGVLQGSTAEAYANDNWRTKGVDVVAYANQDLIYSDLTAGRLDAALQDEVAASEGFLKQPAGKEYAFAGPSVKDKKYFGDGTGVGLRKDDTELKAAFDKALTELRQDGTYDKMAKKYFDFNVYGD
T3 sequence (P0A4F8 21-276 N202D): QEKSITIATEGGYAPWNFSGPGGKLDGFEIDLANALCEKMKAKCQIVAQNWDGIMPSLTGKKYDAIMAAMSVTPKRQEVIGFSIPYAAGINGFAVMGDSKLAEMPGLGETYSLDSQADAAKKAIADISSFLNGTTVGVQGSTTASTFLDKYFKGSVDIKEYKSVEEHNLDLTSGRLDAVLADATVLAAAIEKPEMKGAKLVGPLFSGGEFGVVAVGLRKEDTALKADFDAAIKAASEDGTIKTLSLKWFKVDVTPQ
T6 sequence (P35120 26-283): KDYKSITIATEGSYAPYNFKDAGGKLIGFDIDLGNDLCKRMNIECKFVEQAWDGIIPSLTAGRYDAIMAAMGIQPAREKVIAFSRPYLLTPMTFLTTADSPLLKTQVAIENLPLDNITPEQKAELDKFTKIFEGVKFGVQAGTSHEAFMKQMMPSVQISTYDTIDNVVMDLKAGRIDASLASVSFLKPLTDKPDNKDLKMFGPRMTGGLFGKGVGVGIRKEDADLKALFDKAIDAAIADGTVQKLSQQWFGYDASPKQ
T4 sequence (P02911 23-260): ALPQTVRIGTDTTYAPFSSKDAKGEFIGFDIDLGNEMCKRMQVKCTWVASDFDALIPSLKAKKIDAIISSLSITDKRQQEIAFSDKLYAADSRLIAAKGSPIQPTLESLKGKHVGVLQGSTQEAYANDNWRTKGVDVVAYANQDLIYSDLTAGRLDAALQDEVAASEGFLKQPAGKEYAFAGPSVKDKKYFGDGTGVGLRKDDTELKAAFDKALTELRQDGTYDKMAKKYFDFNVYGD
T1 sequence (P0A4F8 21-276): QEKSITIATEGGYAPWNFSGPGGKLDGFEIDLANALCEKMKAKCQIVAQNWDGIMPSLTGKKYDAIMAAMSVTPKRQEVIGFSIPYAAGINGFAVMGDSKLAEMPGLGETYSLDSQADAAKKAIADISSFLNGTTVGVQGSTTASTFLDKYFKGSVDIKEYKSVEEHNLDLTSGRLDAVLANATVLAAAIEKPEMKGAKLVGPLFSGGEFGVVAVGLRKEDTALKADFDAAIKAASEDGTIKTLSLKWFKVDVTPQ
T2 sequence (P0A4F8 21-276 S91G): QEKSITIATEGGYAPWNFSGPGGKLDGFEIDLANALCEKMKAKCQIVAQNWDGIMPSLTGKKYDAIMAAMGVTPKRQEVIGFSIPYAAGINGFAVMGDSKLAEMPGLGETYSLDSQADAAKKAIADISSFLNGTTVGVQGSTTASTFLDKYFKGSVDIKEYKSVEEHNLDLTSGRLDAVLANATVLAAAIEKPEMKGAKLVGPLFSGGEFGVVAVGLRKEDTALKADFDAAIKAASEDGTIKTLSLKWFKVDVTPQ

| Structure (SMILES) | Kd (OccJ WT [1]) | Enthalpy (ΔH) (OccJ WT [2]) | Entropic contribution (-TΔS) (OccJ WT [2]) | Entropy (ΔS) (OccJ WT [2]) | Free enthalpy (ΔG) (OccJ WT [2]) | Kd (OccJ WT [2]) | K D (F) (OccJ S91G) | K D, amino acids (NocT WT [3]) | previous reported affinity (LAO) | K D (F) (OccJ WT [1]; [6]) | Kd (OccJ WT [1]; [7]) | Kd (NocT WT [4]) | also measured |
| --- | --- | --- | --- | --- | --- | --- | --- | --- | --- | --- | --- | --- | --- |
| N=C(N)NCCC[C@H](N)C(=O)O [L-arginine] | 7.2 ± 1 µM | -4.208 kcal/mol | -1.755 kcal/mol | 5.99 cal/mol/deg | -5.964 kcal/mol | 35.7 µM | can no longer bind | does not interact | nanomolar range |  |  |  | Enthalpy (ΔH) (OccJ N202D): -0.632 kcal/mol; Entropic contribution (-TΔS) (OccJ N202D): -5.696 kcal/mol; Entropy (ΔS) (OccJ N202D): 19.3 cal/mol/deg; Free enthalpy (ΔG) (OccJ N202D): -6.328 kcal/mol; Kd (LAO WT): 0.024 ± 0.002 µM; Enthalpy (ΔH) (LAO WT; ITC, 20 °C): -10.91 kcal/mol; Entropic contribution (-TΔS) (LAO WT; ITC, 20 °C): 0.703 kcal/mol; Entropy (ΔS) (LAO WT; ITC, 20 °C): -2.4 cal/mol/deg; Free enthalpy (ΔG) (LAO WT; ITC, 20 °C): -10.207 kcal/mol; Kd (LAO Q122A): 0.12 ± 0.01 µM; fold lower affinity of LAO-Q122A compared with WT (LAO Q122A; ITC): 5 fold; Enthalpy (ΔH) (LAO Q122A; ITC, 20 °C): -6.853 kcal/mol; Entropic contribution (-TΔS) (LAO Q122A; ITC, 20 °C): -2.433 kcal/mol; Entropy (ΔS) (LAO Q122A; ITC, 20 °C): 8.3 cal/mol/deg; Free enthalpy (ΔG) (LAO Q122A; ITC, 20 °C): -9.286 kcal/mol |
| NCCCC[C@H](N)C(=O)O [L-lysine] | 7.5 ± 2.1 µM | -4.92 kcal/mol | -0.645 kcal/mol | 2.20 cal/mol/deg | -5.565 kcal/mol | 71 µM | can no longer bind | does not interact | nanomolar range |  |  |  |  |
| N[C@@H](Cc1c[nH]cn1)C(=O)O [histidine] |  |  |  |  |  |  |  |  |  | No fluorescence intensity change was detected |  |  |  |
| CC(N[C@@H](Cc1cnc[nH]1)C(=O)O)C(=O)O (some centres unmarked) [histopine] |  | -0.854 kcal/mol | -3.81 kcal/mol | 13 cal/mol/deg | -4.664 kcal/mol | 326 µM |  |  |  | micromolar range | 33.1 ± 3.5 µM | 84.4 ± 6.7 µM |  |
| N=C(N)NCCCC[C@H](NCC(=O)O)C(=O)O [homo-noroctopine] |  | -4.115 kcal/mol | -2.207 kcal/mol | 7.53 cal/mol/deg | -6.322 kcal/mol | 19.3 ± 1.4 µM |  |  |  |  | 4.63 ± 0.42 µM | 21.3 ± 2.1 µM | Enthalpy (ΔH) (NocT WT [5]): -1.195 kcal/mol; Entropic contribution (-TΔS) (NocT WT [5]): -4.309 kcal/mol; Entropy (ΔS) (NocT WT [5]): 14.7 cal/mol/deg; Free enthalpy (ΔG) (NocT WT [5]): -5.504 kcal/mol; Kd (NocT WT [5]): 79 ± 14 µM |
| C[C@@H](N[C@@H](CCCCN)C(=O)O)C(=O)O [lysopine] |  | -4.832 kcal/mol | -4.455 kcal/mol | 15.2 cal/mol/deg | -9.287 kcal/mol | 0.11 ± 0.02 µM |  |  |  |  | 0.14 ± 0.01 µM | 11.2 ± 3.5 µM | Kd (OccJ WT [1]; fluorescence titration, read-out: apparent dissociation constant K D): 0.14 ± 0.01 µM |

Source: article PMC5740067 (Scientific Reports, 2017)
